Patent US20220089646A1 (THE UNIVERSITY OF QUEENSLAND, priority 2019, published 2022)
*1 amine or outer side, *2 acyl side, *3 side chain or, on linkers, in order; H or OH if unused. Where a SMILES comes first, the peptide text is derived from it. Bridges are numbered along the chain shown (N, C = ends). [ ]: non-standard residue; d: D form. NHCH2CMe2S = CC(C)(CN[*:1])S[*:2]

Experiments:
trypsin = target: T1, trypsin (Bos taurus, UniProt P00760); assay: Trypsin stability; type: in vitro ADME
T1 sequence (P00760 24-246): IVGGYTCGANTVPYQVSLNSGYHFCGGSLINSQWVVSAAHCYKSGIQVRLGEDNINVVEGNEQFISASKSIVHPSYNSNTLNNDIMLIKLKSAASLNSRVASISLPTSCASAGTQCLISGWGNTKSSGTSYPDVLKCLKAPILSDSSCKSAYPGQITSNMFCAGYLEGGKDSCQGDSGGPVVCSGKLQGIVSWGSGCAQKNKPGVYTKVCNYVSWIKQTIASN
Procedure: Purified DP-7-11 (1 mg/mL) was dissolved in 0.1 M ammonium bicarbonate (NH4HCO3) buffer. To prepare a stock trypsin solution, 1 mg trypsin was dissolved in 50 mL of 0.1 M NH4HCO3 buffer. Equal volumes of the stock trypsin solution (62.5 μL) and DP-7-11 solution (62.5 μL) were incubated in 375 μL of 0.1M NH4HCO3 buffer in a 37° C. water bath. Aliquots of 100 μL were collected from this mixture at set time intervals of 0 min, up to 24 hours. Ice-cold acetonitrile containing 0.5% TFA was used to quench the reaction between DP-7-11 and trypsin at predetermined intervals, and just prior to HPLC or LC-MS analysis. The quenched samples were vortexed for 10 minutes followed by centrifugation at 12,000 rpm for a further 15 minutes. Supernatant was sampled and analysed using analytical RP-HPLC or LC-MS. Samples without trypsin acted as negative controls and were sampled at two intervals of 0 hour and 6 hours.
As used in this serum and trypsin stability discussion, the term ‘degraded completely’ relates to the relevant compound being completely absent when tested. In other words, the compound being tested is not observed when tested.
The serum and trypsin stability of DP-7-11 and DP-7-12 were tested (in some instances again) using LC-MS. The LC-MS utilized in this study was more sensitive than the LC-MS utilized in the above tests.

KOP = KOP (Homo sapiens, UniProt P41145); assay: Inhibition of Forskolin-induced cAMP production in HEK-KOP cells (AlphaScreen, DP series); type: cell-based; conditions: for IC80: approximate IC80, 'EC anything' protocol; for cAMP response, HEK-KOP: concentration-response curve, % cAMP
Sequence of KOP (P41145 whole entry): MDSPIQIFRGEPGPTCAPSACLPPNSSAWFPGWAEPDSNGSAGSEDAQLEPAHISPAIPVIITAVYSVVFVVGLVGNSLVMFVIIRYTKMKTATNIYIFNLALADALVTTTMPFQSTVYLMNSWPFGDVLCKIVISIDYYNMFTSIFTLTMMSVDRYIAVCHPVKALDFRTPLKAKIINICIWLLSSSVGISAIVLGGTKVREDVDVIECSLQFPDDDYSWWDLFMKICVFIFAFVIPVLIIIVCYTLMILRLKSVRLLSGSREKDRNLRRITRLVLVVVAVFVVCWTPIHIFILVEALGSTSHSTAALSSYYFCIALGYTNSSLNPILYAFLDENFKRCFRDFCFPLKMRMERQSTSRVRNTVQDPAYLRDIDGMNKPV
Procedure: DP-7-11 and DP-7-12 were assessed for the ability to inhibit cAMP production in HEK-DOP and HEK KOP cells.
The HEK-293 DOP (HEK-DOP) and HEK-293 KOP (HEK-KOP) cell lines were cultured in a T75 flask, in Dulbeco's Modified Eagle's Medium (DMEM) complete with 10% (v/v) fetal bovine serum (FBS) and 1% (v/v) Geneticin. Cells were incubated in a humidified atmosphere of 37° C. (95% air and 5% CO2). Cells were passaged at 80-90% confluence and media was changed every two days.
Stimulation buffer and Lysis buffer were prepared fresh on the day of each assay. Stimulation buffer contained 19.5 mL Hanks buffered saline solution, Bovine serum albumin (BSA) 0.1% (w/v), 0.5 mM 3-Isobutyl-1-methylxanthine (IBMX) and 5 mM HEPES (4-(2-hydroxyethyl)-1-piperazineethanesulfonic acid). Lysis buffer contained 19 mL Mili-Q H2O, BSA 0.1% (w/v), 0.3% (v/v) 10% Tween-20, and 5 mM HEPES. Both buffers were adjusted to pH 7.4 with NaOH.
The cAMP standard dilution series was prepared from the 50 μM cAMP standard solution provided by the cAMP assay kit. The standard solution was vortexed before being serially diluted to provide a concentration range of 5×10^−6 M to 5×10^−11 M in ½ Log intervals.
For this assay, Forskolin was optimised at 50 μM/well. 25 mM stocks were used to prepare 0.2 mM Forskolin. The concentration of Forskolin prepared was 4 times the required concentration in the well to account for further dilution in the well. 0.1 mM Forskolin solution was then made from this and used to dilute the peptide solutions.
DP-7-11 and DP-7-12 provided in powder form and reconstituted to 10 mM stock solutions and diluted to 1 mM working stocks using Mili-Q H2O. Each peptide solution was serially diluted to give concentrations of 1×10^−6 to 3×10^−7 M with stimulation buffer.
Stimulation buffer was added to the 0.2 mM Forskolin solution in a 1:1 ratio to prepare the Forskolin only treatment solution. This was the positive control. Stimulation buffer was used as the negative control.
Cells were harvested from two T75 flasks on the day of experimentation. Identical protocol was used for both DOP and KOP cells. The cells were first removed from the incubator and washed with Versene®. The cells were then incubated in 2 mL of Versene® at 37° C. for 5 minutes. Following this, the mixture was made up to 5 mL with Versene® in a centrifuge tube. This was centrifuged at 1300 rpm for 2 minutes at 23° C. The supernatant was then decanted and the cells resuspended in 100 μL stimulation buffer for counting. A hemocytometer was used to count the cells. This assay required the concentration of cells to be 13300 cells/μL
This method was used to conduct all cAMP Alphascreen assays. The acceptor bead mixture consisted of acceptor beads and stimulation buffer mixed according to the ratio 1:35 given in the kit. From this, the acceptor beads mixture was used to prepare separate mixtures for the cAMP standard curve and for the treatment wells of the assay. For the treatment wells, the beads were mixed with cells in a 1:1 ratio. For the cAMP standard curve, the beads were mixed with more stimulation buffer in a 1:1 ratio. The donor bead mixture consisted of donor beads, biotinylated cAMP and lysis buffer mixed in the ratio 1:3:300.
The DP series compounds were assayed as follows: The assay was performed using a 96 well ½ area plate. The different cAMP standard solutions (3 μL/well) were plated in duplicate. The different concentrations of drug (3 μL/well), and control solutions (3 μL/well) were plated in triplicate. […]

Compound | Incubation in trypsin: peptide remaining (trypsin; at 30 min, more sensitive LC-MS) [% remaining at] | remaining at 0.5 h, 0.125 mg/mL (trypsin; trypsin solution, at 30 min, more sensitive LC-MS, read-out: Incubation in trypsin: peptide remaining) [%] | IC50 (KOP; Forskolin 50 μM/well, 95% CI in brackets) [µM] | IC80 (KOP) [µM] | cAMP response, HEK-KOP (KOP) [%] | Trypsin: complete degradation within (trypsin; 37° C.)
CC1(C)CNC(=O)C[C@H](C(=O)N[C@@H](CCCNC(=N)N)C(=O)N[C@@H](CCCNC(=N)N)C(N)=O)NC(=O)[C@H](Cc2ccccc2)NC(=O)CNC(=O)[C@@H](NC(=O)[C@@H](N)Cc2ccc(O)cc2)CSS1 [DP-7-11, c(Tyr-SSa-Gly-Phe-D(Asp)-Arg-Arg)] | 25 | ~25 | 0.00506 | 0.03 | 13.73 | 
CC1(C)CNC(=O)C[C@@H](NC(=O)[C@@H](N)Cc2ccc(O)cc2)C(=O)NCC(=O)N[C@@H](Cc2ccccc2)C(=O)N[C@H](C(=O)N[C@@H](CCCNC(=N)N)C(=O)N[C@@H](CCCNC(=N)N)C(N)=O)CSS1 [DP-7-12, c(Tyr-D(Asp)-Gly-Phe-SSa-Arg-Arg)] (H-Y[dD]GFCRR-NH2; linker 2-5 via NHCH2CMe2S) |  |  |  | 0.0288 | 25.88 | within 30 min
